Experimental data reported in US10508077B2 (FORMA Therapeutics, Inc., priority 2015, dated 2019).

Target: T1, Full length human recombinant HDAC8 protein (Homo sapiens, UniProt Q9BY41)
T1 construct: Full length human recombinant HDAC8 protein was expressed in baculoviral system; made in house
T1 sequence (Q9BY41 1-377): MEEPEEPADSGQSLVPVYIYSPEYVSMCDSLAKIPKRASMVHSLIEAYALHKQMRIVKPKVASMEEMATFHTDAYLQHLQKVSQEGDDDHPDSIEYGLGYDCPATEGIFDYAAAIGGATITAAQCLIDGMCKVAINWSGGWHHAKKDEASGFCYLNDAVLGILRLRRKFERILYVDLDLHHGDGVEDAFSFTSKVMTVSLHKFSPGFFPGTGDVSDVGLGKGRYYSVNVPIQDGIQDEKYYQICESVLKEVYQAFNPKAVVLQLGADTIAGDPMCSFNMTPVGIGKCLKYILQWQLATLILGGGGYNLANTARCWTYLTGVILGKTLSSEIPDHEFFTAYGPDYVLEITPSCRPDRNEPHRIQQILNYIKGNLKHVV
Assay: In vitro histone deacetylase assay: enzymatic HDAC8 assay, electrophoretic mobility shift
Type: biochemical
Details: substrate RHKK(Ac)-NH2, 1 nM enzyme, compounds listed under IC50 range headings
How it was run: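 Baculovirus-expressed full-length human HDAC8 (1 nM) deacetylated 2 µM fluorescent RHKK(Ac)-NH2 peptide in pH 7.5 HEPES, 1% DMSO, at 25 °C, with 12 compound concentrations at 3× spacing. SDS-quenched; product and substrate resolved by microfluidic electrophoresis, P/(S+P) converted to percent inhibition, and IC50 obtained by 4-parameter fit.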

Structure (SMILES)	IC50
CCSCC(=O)N1CCN(c2ccccc2/C=C/C(=O)NO)CC1 [Example I-197, (E)-3-(2-(4-(2-(ethylthio)acetyl)pipera-zin-1-yl)phenyl)-N-hydroxyacrylamide]	< 1000 nM
O=C(/C=C/c1ccccc1N1CCN(C(=O)Cc2ccc(Cl)cc2)CC1)NO [Example I-210, (E)-3-(2-(4-(2-(4-chlorophenyl)acetyl)piper-azin-1-yl)phenyl)-N-hydroxyacrylamide]	< 1000 nM
COc1cncc(CNc2ccccc2/C=C/C(=O)NO)c1 [Example I-90]	< 1000 nM
O=C(/C=C/c1ccccc1N1CCC(NC(=O)CCC(F)(F)F)CC1)NO [Example I-130, (E)-4,4,4-trifluoro-N-(1-(2-(3-(hydroxyamino)-3-oxoprop-1-en-1-yl)phenyl)piperidin-4-yl)butanamide]	< 1000 nM
Cn1cncc1C(=O)N1CCN(c2ccccc2/C=C/C(=O)NO)CC1 [Example I-199, (E)-N-hydroxy-3-(2-(4-(1-methyl-1H-imidazole-5-carbonyl)piperazin-1-yl)phenyl)acrylamide]	< 1000 nM
Cc1oc(-c2ccc(Cl)cc2)cc1C(=O)N1CCN(c2ccccc2/C=C/C(=O)NO)CC1 [Example I-214, (E)-3-(2-(4-(5-(4-chlorophenyl)-2-methylfuran-3-carbonyl)piperazin-1-yl)phenyl)-N-hydroxyacrylamide]	< 1000 nM
CS(=O)(=O)N1CCC(CC(=O)NC2CCN(c3ccccc3/C=C/C(=O)NO)CC2)CC1 [Example I-135, (E)-N-hydroxy-3-(2-(4-(2-(1-(methylsulfonyl)piperidin-4-yl)acetamido)piperidin-1-yl)phenyl)acrylamide]	< 1000 nM
Cc1noc(C)c1S(=O)(=O)NC1CCN(c2ccccc2/C=C/C(=O)NO)CC1 [Example I-220, (E)-3-(2-(4-((3,5-dimethylisoxazole)-4-sulfonamido)piperidin-1-yl)phenyl)-N-hydroxyacrylamide]	< 1000 nM
CN(C)Cc1ccccc1CN1CCN(c2ccccc2/C=C/C(=O)NO)CC1 [Example I-162, (E)-3-(2-(4-(2-((dimethylamino)methyl)benzyl)piperazin-1-yl)phenyl)-N-hydroxyacrylamide]	< 1000 nM
CC(C)c1ccc(C(=O)NC2CCN(c3ccccc3/C=C/C(=O)NO)CC2)nc1 [Example I-154, (E)-N-(1-(2-(3-(hydroxyamino)-3-oxoprop-1-en-1-yl)phenyl)piperidin-4-yl)-5-isopropylpicolinamide]	< 1000 nM
Cc1c(C(=O)NC2CCN(c3ccccc3/C=C/C(=O)NO)CC2)cnn1-c1ccccc1 [Example I-16]	1000 to 10000 nM
O=C(/C=C/c1ccccc1N1CCC(NC(=O)COc2ccc(Cl)cc2)CC1)NO [Example I-10, (E)-3-(2-(4-(2-(4-chlorophenoxy)acetami-do)piperidin-1-yl)phenyl)-N-hydroxyacrylamide]	1000 to 10000 nM
CC(=O)Nc1cccc(C(=O)Nc2ccccc2/C=C/C(=O)NO)c1 [Example I-42, (E)-3-acetamido-N-(2-(3-(hydroxyamino)-3-oxoprop-1-en-1-yl)phenyl)benazmide]	< 1000 nM
CN1CC(C(=O)NC2CCN(c3ccccc3/C=C/C(=O)NO)CC2)C1 [Example I-12, (E)-N-(1-(2-(3-(hydroxyamino)-3-oxoprop-1-en-1-yl)phenyl)piperidin-4-yl)-1-methylazetidine-3-carboxamide]	1000 to 10000 nM
O=C(/C=C/c1ccccc1N1CCC(NC(=O)CN2CCS(=O)(=O)CC2)CC1)NO [Example I-138, (E)-3-(2-(4-(2-(1,1-dioxidothiomorpholino)acetamido)piperidin-1-yl)phenyl)-N-hydroxyacrylamide]	< 1000 nM
O=C(/C=C/c1ccccc1N1CCN(Cc2ccccn2)CC1)NO [Example I-168, (E)-N-hydroxy-3-(2-(4-(pyridin-2-ylmethyl)piperazin-1-yl)phenyl)acrylamide]	< 1000 nM
CN(C)Cc1cccc(CNC2CCN(c3ccccc3/C=C/C(=O)NO)CC2)c1 [Example I-18, (E)-3-(2-(4-((3-((dimethylamino)methyl)benzyl)amino)piperidin-1-yl)phenyl)-N-hydroxyacrylamide]	1000 to 10000 nM
O=C(/C=C/c1ccccc1N1CCC(NC(=O)C2Cc3ccccc3C2)CC1)NO [Example I-140, (E)-N-(1-(2-(3-(hydroxyamino)-3-oxoprop-1-en-1-yl)phenyl)piperidin-4-yl)-2,3-dihydro-1H-indene-2-carboxamide]	< 1000 nM
O=C(/C=C/c1ccccc1N1CCN(C(=O)C2CC(F)(F)C2)CC1)NO [Example I-205, (E)-3-(2-(4-(3,3-difluorocyclobutane-1-carbonyl)piperazin-1-yl)phenyl)-N-hydroxyacrylamide]	< 1000 nM
O=C(/C=C/c1ccccc1N1CCN(Cc2ccccc2OC(F)F)CC1)NO [Example I-176, (E)-3-(2-(4-(2-(difluoromethoxy)benzyl)piperazin-1-yl)phenyl)-N-hydroxyacrylamide]	< 1000 nM
CCCCN1CCN(c2ccccc2/C=C/C(=O)NO)CC1 [Example I-177, (E)-3-(2-(4-butylpiperazin-1-yl)phenyl)-N-hydroxyacrylamide]	< 1000 nM
O=C(/C=C/c1ccccc1N1CCC2(CCNCC2)CC1)NO [Example I-52, (E)-3-(2-(3,9-diazaspiro[5.5]undecan-3-yl)phenyl)-N-hydroxyacrylamide 2,2,2-trifluoroacetate]	< 1000 nM
CC(C)(C)OC(=O)N1CCN(c2ccccc2/C=C/C(=O)NO)CC1 [Example I-58, tert-butyl (E)-4-(2-(3-(hydroxyamino)-3-oxoprop-1-en-1-yl)phenyl)piperazine-1-carboxylate]	< 1000 nM
O=C(/C=C/c1ccccc1N1CCC(NC(=O)c2ccc3cccnc3n2)CC1)NO [Example I-11, (E)-N-(1-(2-(3-(hydroxyamino)-3-oxoprop-1-en-1-yl)phenyl)piperidin-4-yl)-1,8-naphthyridine-2-carboxamide]	1000 to 10000 nM

Results, then the compound that gave them:

IC50	Structure (SMILES)
< 1000 nM	O=C(/C=C/c1ccccc1N1CCN(S(=O)(=O)Cc2ccc(Cl)cc2F)CC1)NO [Example I-259, (E)-3-(2-(4-((4-chloro-2-fluorobenzyl)sulfonyl)pi-perazin-1-yl)phenyl)-N-hydroxyacrylamide]
< 1000 nM	CC(C)(C)OC(=O)N1CC(=O)N(c2ccccc2/C=C/C(=O)NO)C1 [Example I-261, tert-butyl (E)-3-(2-(3-(hydroxyamino)-3-oxoprop-1-en-1-yl)phenyl)-4-oxoimidazolidine-1-carboxylate]
1000 to 10000 nM	O=C(/C=C/c1ccccc1C(=O)NCCc1ccc(F)cc1)NO [II-6, (E)-N-(4-fluorophenethyl)-2-(3-(hydroxyamino)-3-oxoprop-1-en-1-yl)benzamide]
< 1000 nM	O=C(/C=C/c1ccccc1N1CCN(S(=O)(=O)C2CCOCC2)CC1)NO [Example I-255, (E)-N-hydroxy-3-(2-(4-((tetrahydro-2H-pyran-4-yl)sulfonyl)piperazin-1-yl)phenyl)acrylamide]
< 1000 nM	O=C(/C=C/c1ccccc1N1C[C@@H]2C[C@H]1CN2C(=O)C1(c2ccc(Cl)cc2)CC1)NO [Example I-329, (E)-3-(2-((1S,4S)-5-(1-(4-chlorophenyl)cyclopropane-1-carbonyl)-2,5-diazabicyclo[2.2.1]heptan-2-yl)phenyl)-N-hydroxyacrylamide]
< 1000 nM	O=C(/C=C/c1ccccc1N1CCN(S(=O)(=O)c2ccc(Cl)s2)CC1)NO [Example I-253, (E)-3-(2-(4-((5-chlorothiophen-2-yl)sulfonyl)piperazin-1-yl)phenyl)-N-hydroxyacrylamide]
< 1000 nM	Cc1nc(-c2ccccc2)sc1C(=O)Nc1ccccc1/C=C/C(=O)NO [Example I-277, (E)-N-(2-(3-(hydroxyamino)-3-oxoprop-1-en-1-yl)phenyl)-4-methyl-2-phenylthiazole-5-carboxamide]
< 1000 nM	CC(C(=O)N1CCN(c2ccccc2/C=C/C(=O)NO)CC1)c1ccc(Cl)cc1 (centres unmarked) [Example I-291, (E)-3-(2-(4-(2-(4-chlorophenyl)propanoyl)piperazin-1-yl)phenyl)-N-hydroxyacrylamide]
< 1000 nM	O=C(/C=C/c1ccccc1N1CCC(NS(=O)(=O)c2ccc(F)cc2)CC1)NO [Example I-222, (E)-3-(2-(4-((4-fluorophenyl)sulfonamido)piperidin-1-yl)phenyl)-N-hydroxyacrylamide]
< 1000 nM	O=C(/C=C/c1ccccc1N1CCC(NC(=O)c2ccccc2)C1)NO (centres unmarked) [Example I-318, (E)-N-(1-(2-(3-(hydroxyamino)-3-oxoprop-1-en-1-yl)phenyl)pyrrolidin-3-yl)benzamide]
< 1000 nM	O=C(/C=C/c1ccccc1N1CCC(NS(=O)(=O)C2CC2)CC1)NO [Example I-241]
< 1000 nM	O=C(/C=C/c1ccccc1N1CCN(S(=O)(=O)C2CC2)CC1)NO [Example I-260, (E)-3-(2-(4-(cyclopropylsulfonyl)piperazin-1-yl)phenyl)-N-hydroxyacrylamide]
< 1000 nM	O=C(/C=C/c1ccccc1N1CCN(C(=O)c2ccc(C(F)(F)F)cc2)CC1=O)NO [Example I-532, (E)-N-hydroxy-3-(2-(2-oxo-4-(4-(trifluoromethyl)benzoyl)piperazin-1-yl)phenyl)acrylamide]
< 1000 nM	O=C(/C=C/c1ccccc1N1CCC(NS(=O)(=O)c2cccnc2)CC1)NO [Example I-221, (E)-N-hydroxy-3-(2-(4-(pyridine-3-sulfonamido)piperidin-1-yl)phenyl)acrylamide]
